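Method: 48-hour compound exposure of cells in 96-well plates, five concentrations, linear interpolation of endpoints. TGI marks complete inhibition of growth.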
Legend:
Assay in all cases: NCI tumour cell line growth inhibition, 48 h
[1] = tested on: 786-0 renal
[2] = tested on: A498 renal
[3] = tested on: A549 NSCLC
[4] = tested on: ACHN renal
[5] = tested on: CAKI-1 renal
[6] = tested on: CCRF-CEM leukemia
[7] = tested on: COLO 205 colon
[8] = tested on: DLD-1 colon
[9] = tested on: DMS 114 small cell lung
[10] = tested on: DMS 273 small cell lung
[11] = tested on: HCT-116 colon
[12] = tested on: HCT-15 colon
[13] = tested on: HL-60(TB) leukemia
[14] = tested on: HOP-18 NSCLC
[15] = tested on: HOP-62 NSCLC
[16] = tested on: HOP-92 NSCLC
[17] = tested on: HT29 colon
[18] = tested on: IGROV1 ovarian
[19] = tested on: K-562 leukemia
[20] = tested on: KM12 colon
[21] = tested on: KM20L2 colon
[22] = tested on: LOX IMVI melanoma
[23] = tested on: LXFL 529 NSCLC
[24] = tested on: M14 melanoma
[25] = tested on: M19-MEL melanoma
[26] = tested on: MALME-3M melanoma
[27] = tested on: MOLT-4 leukemia
[28] = tested on: NCI-H226 lung
[29] = tested on: NCI-H23 lung
[30] = tested on: NCI-H460 lung
[31] = tested on: NCI-H522 lung
[32] = tested on: OVCAR-3 ovarian
[33] = tested on: OVCAR-4 ovarian
[34] = tested on: OVCAR-5 ovarian
[35] = tested on: OVCAR-8 ovarian
[36] = tested on: RPMI-8226 leukemia
[37] = tested on: RXF 393 renal
[38] = tested on: SF-268 CNS
[39] = tested on: SF-295 CNS
[40] = tested on: SF-539 CNS
[41] = tested on: SK-MEL-2 melanoma
[42] = tested on: SK-MEL-28 melanoma
[43] = tested on: SK-MEL-5 melanoma
[44] = tested on: SK-OV-3 ovarian
[45] = tested on: SN12C renal
[46] = tested on: SNB-75 CNS
[47] = tested on: SNB-78 CNS
[48] = tested on: SR leukemia
[49] = tested on: SW-620 colon
[50] = tested on: TK-10 renal
[51] = tested on: U251 CNS
[52] = tested on: UACC-257 melanoma
[53] = tested on: UACC-62 melanoma
[54] = tested on: UO-31 renal
[55] = tested on: EKVX NSCLC
[56] = tested on: HCC-2998 colon
[57] = tested on: SNB-19 CNS

O=S(=O)(c1ccccc1)n1cnc(CCc2ccccc2)n1
TGI [1]: > 100 µM | TGI [2]: > 100 µM | TGI [3]: > 100 µM | TGI [4]: > 100 µM | TGI [5]: > 100 µM | TGI [6]: > 100 µM | TGI [7]: > 100 µM | TGI [8]: > 100 µM | TGI [9]: > 100 µM | TGI [10]: > 100 µM | TGI [11]: > 100 µM | TGI [12]: > 100 µM | TGI [13]: > 100 µM | TGI [14]: > 100 µM | TGI [15]: > 100 µM | TGI [16]: > 100 µM | TGI [17]: > 100 µM | TGI [18]: > 100 µM | TGI [19]: > 100 µM | TGI [20]: > 100 µM | TGI [21]: > 100 µM | TGI [22]: > 100 µM | TGI [23]: > 100 µM | TGI [24]: > 100 µM | TGI [25]: > 100 µM | TGI [26]: > 100 µM | TGI [27]: > 100 µM | TGI [28]: > 100 µM | TGI [29]: > 100 µM | TGI [30]: > 100 µM | TGI [31]: > 100 µM | TGI [32]: > 100 µM | TGI [33]: > 100 µM | TGI [34]: > 100 µM | TGI [35]: > 100 µM | TGI [36]: > 100 µM | TGI [37]: > 100 µM | TGI [38]: > 100 µM | TGI [39]: > 100 µM | TGI [40]: > 100 µM | TGI [41]: > 100 µM | TGI [42]: > 100 µM | TGI [43]: > 100 µM | TGI [44]: > 100 µM | TGI [45]: > 100 µM | TGI [46]: > 100 µM | TGI [47]: > 100 µM | TGI [48]: > 100 µM | TGI [49]: > 100 µM | TGI [50]: > 100 µM | TGI [51]: > 100 µM | TGI [52]: > 100 µM | TGI [53]: > 100 µM | TGI [54]: > 100 µM

OC1=CN=C(C2CC2)Oc2ccccc21
TGI [1]: > 100 µM | TGI [2]: > 100 µM | TGI [3]: > 100 µM | TGI [4]: > 100 µM | TGI [6]: > 100 µM | TGI [7]: > 100 µM | TGI [8]: > 100 µM | TGI [9]: > 100 µM | TGI [10]: > 100 µM | TGI [55]: > 100 µM | TGI [56]: > 100 µM | TGI [11]: > 100 µM | TGI [12]: > 100 µM | TGI [13]: > 100 µM | TGI [15]: > 100 µM | TGI [16]: > 100 µM | TGI [17]: > 100 µM | TGI [18]: > 100 µM | TGI [19]: > 100 µM | TGI [20]: > 100 µM | TGI [21]: > 100 µM | TGI [22]: > 100 µM | TGI [23]: > 100 µM | TGI [24]: > 100 µM | TGI [25]: > 100 µM | TGI [26]: > 100 µM | TGI [27]: > 100 µM | TGI [28]: > 100 µM | TGI [29]: > 100 µM | TGI [30]: > 100 µM | TGI [32]: > 100 µM | TGI [33]: > 100 µM | TGI [35]: > 100 µM | TGI [36]: > 100 µM | TGI [37]: > 100 µM | TGI [38]: > 100 µM | TGI [39]: > 100 µM | TGI [40]: > 100 µM | TGI [41]: > 100 µM | TGI [42]: > 100 µM | TGI [43]: > 100 µM | TGI [44]: > 100 µM | TGI [45]: > 100 µM | TGI [57]: > 100 µM | TGI [46]: > 100 µM | TGI [47]: > 100 µM | TGI [49]: > 100 µM | TGI [50]: > 100 µM | TGI [51]: > 100 µM | TGI [52]: > 100 µM | TGI [53]: > 100 µM | TGI [54]: > 100 µM

CC(=O)C(CN(C)Cc1ccccc1)C(c1ccccc1)c1c(O)c2ccccc2oc1=O (stereo unspecified)
TGI [1]: > 100 µM | TGI [2]: > 100 µM | TGI [3]: > 100 µM | TGI [4]: > 100 µM | TGI [5]: > 100 µM | TGI [6]: > 100 µM | TGI [7]: > 100 µM | TGI [8]: > 100 µM | TGI [9]: > 100 µM | TGI [10]: > 100 µM | TGI [55]: > 100 µM | TGI [56]: > 100 µM | TGI [11]: > 100 µM | TGI [12]: > 100 µM | TGI [13]: > 100 µM | TGI [15]: > 100 µM | TGI [16]: > 100 µM | TGI [17]: > 100 µM | TGI [18]: > 100 µM | TGI [19]: > 100 µM | TGI [20]: > 100 µM | TGI [21]: > 100 µM | TGI [22]: > 100 µM | TGI [23]: > 100 µM | TGI [24]: > 100 µM | TGI [25]: > 100 µM | TGI [26]: > 100 µM | TGI [27]: > 100 µM | TGI [28]: 99.5 µM | TGI [29]: > 100 µM | TGI [30]: > 100 µM | TGI [31]: > 100 µM | TGI [33]: > 100 µM | TGI [34]: > 100 µM | TGI [35]: > 100 µM | TGI [36]: > 100 µM | TGI [37]: > 100 µM | TGI [38]: > 100 µM | TGI [39]: > 100 µM | TGI [40]: > 100 µM | TGI [41]: > 100 µM | TGI [42]: > 100 µM | TGI [43]: > 100 µM | TGI [44]: > 100 µM | TGI [45]: > 100 µM | TGI [57]: 93.2 µM | TGI [46]: > 100 µM | TGI [47]: > 100 µM | TGI [48]: > 100 µM | TGI [49]: > 100 µM | TGI [50]: > 100 µM | TGI [51]: > 100 µM | TGI [52]: > 100 µM | TGI [53]: > 100 µM | TGI [54]: 83.7 µM
